Converted amounts (≈) assume the structure as drawn.
What was measured:
[1] = system: RPMI8226 (multiple myeloma); assay: MTT growth inhibition of multiple myeloma cells, 72 h; assay type: cell-based, human; details: Homo sapiens, RPMI-8226, MTT
Description: Multiple myeloma and lymphoma cell lines: RPMI8226 (multiple myeloma), purchased from Fuxiang Bio-tech Co. Ltd., Shanghai, China.
(§1) Obtaining 6000 well-growing leukemia cells and inoculating them into wells of a 96-well cell culture plate. The culture medium is the 1640 cell culture medium containing 10% fetal bovine serum. After adding the homoharringtonine derivatives of different concentrations and mixing uniformly, placing the plate in a carbon dioxide cell incubator (5% CO2) at 37° C. and incubated for 72 hours. Then the viable cell concentration is determined by the MTT method. In this experiment, the cell viability in control group (not treated with any compound) is set as 100%. On such basis, the cell viability (%) after treatment and the 50% inhibiting concentration of the compound for the leukemia cell growth at 72 hours (IC50 value of 72 hours) are calculated.

[2] = system: CNE (nasopharyngeal carcinoma cell); assay: MTT growth inhibition of human solid tumor cells, 72 h; assay type: cell-based; details: for IC50 / IC90: Homo sapiens, MTT
Description: (§2) Human solid tumor cell lines: Hep-2 (laryngeal carcinoma), A549 (human lung cancer), CaES-17 (esophageal cancer cell), PC-3 (prostate cancer), CNE (nasopharyngeal carcinoma cell), and SK-OV-3 (ovarian cancer cell), all of which are purchased from China Center For Type Culture Collection; RKO (human colon adenocarcinoma cell), MGC 803 (human gastric cancer cell), MG63 (osteosarcoma) and U87 MG (malignant glioma cell), all of which are purchased from Fuxiang Bio-tech Co. Ltd., Shanghai, China; PANC-1 (pancreatic cancer), Huh7 (human liver cancer cell), Becap37 (human breast cancer cell), and Hela (human cervical cancer cell), all of which are donated by Cancer Research Institute of Zhejiang University, China.
(§3) Obtaining 4000 well-growing human solid tumor cells and inoculating them into wells of a 96-well cell culture plate. The culture medium is DMEM High Glucose cell culture medium containing 10% fetal bovine serum. The plate is placed in a carbon dioxide cell incubator (5% CO2) at 37° C. and incubated for 24 hours. After adding the homoharringtonine derivatives of different concentration and mixing uniformly, the plate is placed in a carbon dioxide cell incubator (5% CO2) at 37° C. and incubated for 72 hours. Then the viable cell concentration is determined by the MTT method and the cell viability (%) after drug treatment is calculated. In this experiment, the cell viability of control group (not treated with any compound) is set as 100%.

[3] = system: CaES-17 (esophageal cancer cell); assay: as above; assay type: cell-based; details: Homo sapiens, CaEs17
Description: as §2, §3

A549 (human lung cancer) = assay: as above; assay type: cell-based; details: Homo sapiens, A549
Description: as §2, §3

[4] = system: Hela (human cervical cancer cell); assay: as above; assay type: cell-based; details: Homo sapiens, HeLa, MTT
Description: as §2, §3

[5] = system: RKO (human colon adenocarcinoma cell); assay: as above; assay type: cell-based; details: Homo sapiens, MTT
Description: as §2, §3

MG63 (osteosarcoma) = assay: as above; assay type: cell-based; details: Homo sapiens, MG-63, MTT
Description: as §2, §3

PC-3 (prostate cancer) = assay: as above; assay type: cell-based; details: Homo sapiens, MTT
Description: as §2, §3

[6] = system: U87 MG (malignant glioma cell); assay: as above; assay type: cell-based; details: Homo sapiens, U-87 MG
Description: as §2, §3

[7] = system: PANC-1 (pancreatic cancer); assay: as above; assay type: cell-based; details: Homo sapiens, PANC-1, MTT
Description: as §2, §3

[8] = system: Becap37 (human breast cancer cell); assay: as above; assay type: cell-based; details: Homo sapiens
Description: as §2, §3

[9] = system: Hep-2 (laryngeal carcinoma); assay: as above; assay type: cell-based; details: Homo sapiens, HEp-2
Description: as §2, §3

[10] = system: MGC 803 (human gastric cancer cell); assay: as above; assay type: cell-based; details: Homo sapiens, MGC-803
Description: as §2, §3

[11] = system: SK-OV-3 (ovarian cancer cell); assay: as above; assay type: cell-based; details: Homo sapiens, SK-OV-3, MTT
Description: as §2, §3

[12] = system: Huh7 (human liver cancer cell); assay: as above; assay type: cell-based; details: Homo sapiens, Huh-7
Description: as §2, §3

[13] = system: Jurkat (acute lymphoblastic leukemia, ALL); assay: MTT growth inhibition of leukemia cells, 72 h; assay type: cell-based, human; details: Homo sapiens, Jurkat
Excerpt: (§4) Leukemia cell lines: leukemia cell lines: K562/adr (drug-resistant, chronic myeloid leukemia, CML), NB4 (acute promyelocytic leukemia, AML), Kasumi-1 (acute myeloid leukemia M2 type, AML-M2), Jurkat (acute lymphoblastic leukemia, ALL), all of which are donated by Cancer Research Institute of Zhejiang University, China; and H9 (acute lymphoblastic leukemia, ALL), which is purchased from China Center for Type Culture Collection (CCTCC).
(§5) Reagents: The standard sample of homoharringtonine (HHT) is purchased from Taihua Natural Plant Pharmaceutical Co., Ltd., Shaanxi, China, the homoharringtonine derivatives of the present invention.
as §1

[14] = system: Kasumi-1 (acute myeloid leukemia M2 type, AML-M2); assay: MTT growth inhibition of leukemia cells, 72 h; assay type: cell-based, human; details: Homo sapiens, Kasumi 1, MTT
Excerpt: as §4, §5, §1

[15] = system: H9 (acute lymphoblastic leukemia, ALL); assay: MTT growth inhibition of leukemia cells, 72 h; assay type: cell-based, human; details: Homo sapiens, MTT
Excerpt: as §4, §5, §1

[16] = system: K562/adr (drug-resistant, chronic myeloid leukemia, CML); assay: MTT growth inhibition of leukemia cells, 72 h; assay type: cell-based, human; details: Homo sapiens, K562/Adr, MTT
Excerpt: as §4, §5, §1

[17] = system: NB4 (acute promyelocytic leukemia, AML); assay: MTT growth inhibition of leukemia cells, 72 h; assay type: cell-based, human; details: Homo sapiens, MTT
Excerpt: as §4, §5, §1

COC(=O)C[C@](O)(CCCC(C)(C)OC(=O)C1CCCC1)C(=O)O[C@@H]1C(OC)=C[C@]23CCCN2CCc2cc4c(cc2[C@H]13)OCO4 [BS-HH-077]
IC50 [1]: 0.004 µg/mL (≈ 0.00623 µM)
IC90 [1]: 0.024 µg/mL (≈ 0.0374 µM)
IC50 [2]: 0.012 µg/mL (≈ 0.0187 µM)
IC90 [2]: > 16 µg/mL
anti-CNE effect relative to homoharringtonine ([2]; vs HHT): more than 3 fold
IC50 [3]: 0.031 µg/mL (≈ 0.0483 µM)
IC90 [3]: 16 µg/mL (≈ 24.9 µM)
IC50 (A549 (human lung cancer)): 0.02 µg/mL (≈ 0.0312 µM)
IC90 (A549 (human lung cancer)): > 16 µg/mL
IC50 [4]: 0.014 µg/mL (≈ 0.0218 µM)
IC90 [4]: 16 µg/mL (≈ 24.9 µM)
IC50 [5]: 0.006 µg/mL (≈ 0.00935 µM)
IC90 [5]: 0.02 µg/mL (≈ 0.0312 µM)
IC50 (MG63 (osteosarcoma)): 0.021 µg/mL (≈ 0.0327 µM)
IC90 (MG63 (osteosarcoma)): 5.14 µg/mL (≈ 8.01 µM)
IC50 (PC-3 (prostate cancer)): 0.039 µg/mL (≈ 0.0608 µM)
IC90 (PC-3 (prostate cancer)): > 16 µg/mL
IC50 [6]: 0.035 µg/mL (≈ 0.0545 µM)
IC90 [6]: 0.16 µg/mL (≈ 0.249 µM)
IC50 [7]: 0.055 µg/mL (≈ 0.0857 µM)
IC90 [7]: > 16 µg/mL
IC50 [8]: 0.007 µg/mL (≈ 0.0109 µM)
IC90 [8]: 11.1 µg/mL (≈ 17.3 µM)
IC50 [9]: 0.007 µg/mL (≈ 0.0109 µM)
IC90 [9]: > 16 µg/mL
IC50 [10]: 0.021 µg/mL (≈ 0.0327 µM)
IC90 [10]: 0.087 µg/mL (≈ 0.136 µM)
IC50 [11]: 0.034 µg/mL (≈ 0.053 µM)
IC90 [11]: > 16 µg/mL
IC50 [12]: 0.016 µg/mL (≈ 0.0249 µM)
IC90 [12]: 0.36 µg/mL (≈ 0.561 µM)
IC50 [13]: 0.001 µg/mL (≈ 0.00156 µM)
IC90 [13]: 11.4 µg/mL (≈ 17.7 µM)
IC50 [14]: 0.004 µg/mL (≈ 0.00623 µM)
IC90 [14]: 0.012 µg/mL (≈ 0.0187 µM)
IC50 [15]: 0.01 µg/mL (≈ 0.0156 µM)
IC90 [15]: 0.03 µg/mL (≈ 0.0467 µM)
IC50 [16]: 0.01 µg/mL (≈ 0.0156 µM)
IC90 [16]: 0.05 µg/mL (≈ 0.0779 µM)
IC50 [17]: 0.009 µg/mL (≈ 0.014 µM)
IC90 [17]: 0.022 µg/mL (≈ 0.0343 µM)

COC(=O)C[C@](O)(CCCC(C)(C)OC(=O)C1CC1)C(=O)O[C@@H]1C(OC)=C[C@]23CCCN2CCc2cc4c(cc2[C@H]13)OCO4 [BS-HH-062]
IC50 [1]: 0.007 µg/mL (≈ 0.0114 µM)
IC90 [1]: 0.029 µg/mL (≈ 0.0473 µM)
IC50 [2]: 0.028 µg/mL (≈ 0.0456 µM)
IC90 [2]: > 16 µg/mL
IC50 [3]: 0.058 µg/mL (≈ 0.0945 µM)
IC90 [3]: 16 µg/mL (≈ 26.1 µM)
IC50 (A549 (human lung cancer)): 0.04 µg/mL (≈ 0.0652 µM)
IC90 (A549 (human lung cancer)): > 16 µg/mL
IC50 [4]: 0.026 µg/mL (≈ 0.0424 µM)
IC90 [4]: 16 µg/mL (≈ 26.1 µM)
IC50 [5]: 0.005 µg/mL (≈ 0.00815 µM)
IC90 [5]: 0.025 µg/mL (≈ 0.0407 µM)
IC50 (MG63 (osteosarcoma)): 0.012 µg/mL (≈ 0.0196 µM)
IC90 (MG63 (osteosarcoma)): 0.77 µg/mL (≈ 1.25 µM)
IC50 (PC-3 (prostate cancer)): 0.11 µg/mL (≈ 0.179 µM)
IC90 (PC-3 (prostate cancer)): > 16 µg/mL
IC50 [6]: 0.02 µg/mL (≈ 0.0326 µM)
IC90 [6]: 0.1 µg/mL (≈ 0.163 µM)
IC50 [7]: 0.044 µg/mL (≈ 0.0717 µM)
IC90 [7]: > 16 µg/mL
IC50 [8]: 0.014 µg/mL (≈ 0.0228 µM)
IC90 [8]: 15.6 µg/mL (≈ 25.4 µM)
IC50 [9]: 0.015 µg/mL (≈ 0.0244 µM)
IC90 [9]: > 16 µg/mL
IC50 [10]: 0.015 µg/mL (≈ 0.0244 µM)
IC90 [10]: 0.07 µg/mL (≈ 0.114 µM)
IC50 [11]: 0.12 µg/mL (≈ 0.196 µM)
IC90 [11]: > 16 µg/mL
IC50 [12]: 0.004 µg/mL (≈ 0.00652 µM)
IC90 [12]: 0.049 µg/mL (≈ 0.0798 µM)
IC50 [13]: 0.012 µg/mL (≈ 0.0196 µM)
IC90 [13]: ≥ 16 µg/mL
IC50 [14]: 0.002 µg/mL (≈ 0.00326 µM)
IC90 [14]: 0.005 µg/mL (≈ 0.00815 µM)
IC50 [15]: 0.008 µg/mL (≈ 0.013 µM)
IC90 [15]: 0.02 µg/mL (≈ 0.0326 µM)
IC50 [16]: 0.06 µg/mL (≈ 0.0978 µM)
IC90 [16]: 0.75 µg/mL (≈ 1.22 µM)
IC50 [17]: 0.004 µg/mL (≈ 0.00652 µM)
IC90 [17]: 0.007 µg/mL (≈ 0.0114 µM)

Reference: patent US9428519B2, “Acylated derivative of homoharringtonine, preparation method therefor, and application thereof” (HANGZHOU BENSHENG PHARMACEUTICAL CO., LTD., priority 2011, dated 2016)
